Reference: PubChem BioAssay AID1963974 (Molecular Pharmacology Branch, DTP, NCI, 2024)
pIC50: −log10 of the molar value.

Test system: 648629-189-R-J1-PDC spheroids with HUVEC/MSC, viability
Experiment: Anticancer human tumor 648629-189-R-J1-PDC patient-derived bladder carcinoma cell line growth inhibition [PI3K]
Conditions: for pIC50: curve of first compound; for viability, T/C: stronger effect = lower value
In short: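 Tumor cells grown as multi-cell spheroids with HUVEC endothelial cells and MSC fibroblast-like stroma were treated with targeted agents combined with inavolisib, alpelisib, duvelisib or copanlisib. Doses fell in half-log steps from near clinical Cmax, else from 10 microM. Viability was measured.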
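Also: spheroids exposed to agents for seven days before reading.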
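For viability, T/C in this document: percent of vehicle control luminescence where 100% = DMSO treated spheroids.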

In the case of CC(=O)c1c(C)c2cnc(Nc3ccc(N4CCNCC4)cn3)nc2n(C2CCCC2)c1=O + CC(Nc1ncnc2nc[nH]c12)c1cc2cccc(Cl)c2c(=O)n1-c1ccccc1, the pIC50 (second compound 0.0316 µM) was < 7.00, the pIC50 (second compound 0.1 µM) was < 7.00 and the pIC50 (second compound 0.316 µM) was < 7.00. The pIC50 (second compound 1 µM) was < 7.00, the pIC50 (second compound 3.16 µM) was < 7.00 and the pIC50 (second compound 10 µM) was < 7.00. For the same compound, the viability, T/C (second compound 0.0316 µM, first compound 0.000316 µM) was 102%, the viability, T/C (second compound 0.0316 µM, first compound 0.001 µM) was 104% and the viability, T/C (second compound 0.0316 µM, first compound 0.00316 µM) was 101%. For the same compound, the viability, T/C (second compound 0.0316 µM, first compound 0.01 µM) was 92.1%, the viability, T/C (second compound 0.0316 µM, first compound 0.0316 µM) was 111% and the viability, T/C (second compound 0.0316 µM, first compound 0.1 µM) was 102%. The viability, T/C (second compound 0.1 µM, first compound 0.000316 µM) was 102%, the viability, T/C (second compound 0.1 µM, first compound 0.001 µM) was 99.2% and the viability, T/C (second compound 0.1 µM, first compound 0.00316 µM) was 98.5%. It also gave a viability, T/C (second compound 0.1 µM, first compound 0.01 µM) of 90.9%, a viability, T/C (second compound 0.1 µM, first compound 0.0316 µM) of 117% and a viability, T/C (second compound 0.1 µM, first compound 0.1 µM) of 116%. It also gave a viability, T/C (second compound 0.316 µM, first compound 0.000316 µM) of 93.1%, a viability, T/C (second compound 0.316 µM, first compound 0.001 µM) of 103% and a viability, T/C (second compound 0.316 µM, first compound 0.00316 µM) of 107%. It also gave a viability, T/C (second compound 0.316 µM, first compound 0.01 µM) of 107%, a viability, T/C (second compound 0.316 µM, first compound 0.0316 µM) of 111% and a viability, T/C (second compound 0.316 µM, first compound 0.1 µM) of 97.9%. For the same compound, the viability, T/C (second compound 1 µM, first compound 0.000316 µM) was 100%, the viability, T/C (second compound 1 µM, first compound 0.001 µM) was 97.4% and the viability, T/C (second compound 1 µM, first compound 0.00316 µM) was 109%. It also gave a viability, T/C (second compound 1 µM, first compound 0.01 µM) of 102%, a viability, T/C (second compound 1 µM, first compound 0.0316 µM) of 112% and a viability, T/C (second compound 1 µM, first compound 0.1 µM) of 98.9%. The viability, T/C (second compound 3.16 µM, first compound 0.000316 µM) was 90.8%, the viability, T/C (second compound 3.16 µM, first compound 0.001 µM) was 108% and the viability, T/C (second compound 3.16 µM, first compound 0.00316 µM) was 91.9%. It also gave a viability, T/C (second compound 3.16 µM, first compound 0.01 µM) of 113%, a viability, T/C (second compound 3.16 µM, first compound 0.0316 µM) of 101% and a viability, T/C (second compound 3.16 µM, first compound 0.1 µM) of 107%. For the same compound, the viability, T/C (second compound 10 µM, first compound 0.000316 µM) was 90.3%, the viability, T/C (second compound 10 µM, first compound 0.001 µM) was 92.2% and the viability, T/C (second compound 10 µM, first compound 0.00316 µM) was 95.3%. The viability, T/C (second compound 10 µM, first compound 0.01 µM) was 88.7%, the viability, T/C (second compound 10 µM, first compound 0.0316 µM) was 89.3% and the viability, T/C (second compound 10 µM, first compound 0.1 µM) was 94.3%.
